Laboratory results as given in patent US4537895A, “Isoquinoline derivatives” (EGYT Gyogyszervegyeszeti Gyar, priority 1982, dated 1985).
“And” between values parts separate entries of the source, which are not always exact repeats. Equal entries are not always repeated. Structures can show the parent of a compound that is named as a salt. Where two headings read alike, the source gives them in different places.

Legend:
[1] = system: blood pressure and nictitating membrane; assay: Test 7: blood pressure and nictitating membrane effect; assay type: in vivo; settings: Felis catus, iv, cats; ">" = inactive in the given dose; read-out: Lowest i.v. dose which still increases the blood pressure and nictitating membrane effect (Test 7)
Method: (§1) Tests 7-10 are carried out in cats and rats, the doses are expressed in micromole/kg.
(§2) Tests 2, 8, 9 and 10 are suitable for the evaluation of the dopaminerg stimulating effect of the test compounds (potential anti-parkinson agent). Tests 4, 5, 6 and 7 give information about the catecholamine-uptake inhibiting effect (potential antidepressive activity).

[2] = system: ptosis induced by tetrabenazine; assay: Test 5: inhibition of tetrabenazine-induced ptosis; assay type: in vivo; settings: for TI (Test 5), LD/ED quotient: LD50 / ED of Test 5; for ED50: Mus musculus, sc, read-out: ED, s.c. dose which inhibits the ptosis induced by tetrabenazine in 50% of the mice (Test 5)
Method: 5. S.c. dose which inhibits the ptosis induced by a dose of 79 umole/kg of tetrabenazine, in 50% of the mice.
(§3) The acute toxicity data are determined in mice. Tests 2-6 are also carried out in mice. The doses are expressed in micromole/kg. The therapeutical index (TI) is the LD/ED quotient.
as §2

[3] = system: catalepsy induced by tetrabenazine; assay: Test 4: inhibition of tetrabenazine-induced catalepsy; assay type: in vivo; settings: for TI (Test 4), LD/ED quotient: LD50 / ED of Test 4; for ED50: Mus musculus, sc, read-out: ED, s.c. dose which inhibits the catalepsy induced by tetrabenazine in 50% of the mice (Test 4)
Method: (§4) 4. S.c. dose which inhibits the catalepsy induced by a 110 umole/kg dose of tetrabenazine, in 50% of the mice.
as §3, §2

[4] = system: decrease of the rectal temperature caused by reserpine; assay: Test 6: reserpine-induced decrease of rectal temperature; assay type: in vivo; settings: for TI (Test 6), LD/ED quotient: LD50 / ED of Test 6; for minimal effective dose: Mus musculus, sc, read-out: ED, lowest s.c. dose which still hinders the decrease of the rectal temperature caused by reserpine (Test 6)
Method: 6. The lowest s.c. dose which still hinders the decrease of the rectal temperature caused by the administration of a 1,6 umole/kg dose of reserpine.
as §3, §2

spontaneous motility = assay: Test 3: spontaneous motility; assay type: in vivo; settings: for TI (Test 3), LD/ED quotient: LD50 / ED of Test 3; for minimal effective dose: Mus musculus, ip
Method: 3. Lowest i.p. dose which still increases or decreases the spontaneous motility of the mice.
as §3
In Test 3 "+=motility increase" and "-=motility decrease."

[5] = system: catalepsy induced by Haloperidol; assay: Test 2: inhibition of haloperidol-induced catalepsy; assay type: in vivo; settings: for TI (Test 2), LD/ED quotient: LD50 / ED of Test 2; for ED50: Mus musculus, sc, read-out: ED, s.c. dose which inhibits the catalepsy induced by Haloperidol in 50% of the mice (Test 2)
Method: (§5) 2. S.c. dose which inhibits the catalepsy induced by a 13 umole/kg dose of Haloperidol, in 50% of the mice.
as §3, §2

[6] = Acute toxicity, s.c., LD50; design: species or system mice; settings: mouse, in vivo, sc, mice, 96 hour observation
Method: as §3

stereotypy = assay: Test 8: induction of stereotypy; assay type: in vivo; settings: Rattus norvegicus, sc, rats; ">" = inactive in the given dose; read-out: Lowest s.c. dose which still induces stereotypy (Test 8)
Method: 8. The lowest s.c. dose which still induces stereotypy, in rats.
as §1, §2

[7] = system: catalepsy induced by Haloperidol / tetrabenazine; assay: Comparison of anti-haloperidol (Test 2) and anti-tetrabenazine (Test 4) activity; assay type: in vivo, mice; settings: for Quotient of the ED values of Columns 2 and 4: ED Test 2 (haloperidol) : ED Test 4 (tetrabenazine)
Method: as §5, §4, §3
On comparing the dopaminerg type anti-haloperidol test and the anti-tetrabenazine activity being characteristic of the antidepressive effect the following can be stated:
The quotient of the ED values of Columns 2 and 4 is the highest for Compound I (55:13=4.2). […] The said quotient is high in the case of Nomifensine (1.6), Compound D (1.8), Compound E (2.7) and Compound F (1.7).

prolactine level = assay: Test 10: decrease of prolactine level in ovariectomised rats; assay type: in vivo; settings: Rattus norvegicus, 96 h, after 4 days treatment with oestradiol 0.073 umole/kg, read-out: Dose which induces a significant decrease of the prolactine level (Test 10)
Method: 10. The dose which induces a significant decrease of the prolactine level after 4 days treatment with a dose of 0.073 umole/kg of oeastradiol, on three weeks earlier ovariectomised rats.
as §1, §2

[8] = Overall comparison with Nomifensine in the pharmacological tests; assay type: in vivo; settings: all tests
Method: The pharmacological activity of the compounds of the present invention is determined by the following tests:
as §3, §1

[9] = read-out: ED, lowest i.p. dose which still decreases the spontaneous motility (Test 3, -)

| SMILES | minimal effective dose [1] [µmol/kg] | TI (Test 5), LD/ED quotient [2] | ED50 [2] [µmol/kg] | TI (Test 4), LD/ED quotient [3] | ED50 [3] [µmol/kg] | TI (Test 6), LD/ED quotient [4] | minimal effective dose [4] [µmol/kg] | TI (Test 3), LD/ED quotient (spontaneous motility) | minimal effective dose (spontaneous motility; [9]) [µmol/kg] | TI (Test 2), LD/ED quotient [5] | ED50 [5] [µmol/kg] | LD50 at 96 h [6] [µmol/kg] | minimal effective dose (stereotypy) [µmol/kg] | Quotient of the ED values of Columns 2 and 4 [7] | minimal effective dose (prolactine level) [µmol/kg] | further results |
| --- | --- | --- | --- | --- | --- | --- | --- | --- | --- | --- | --- | --- | --- | --- | --- | --- |
| CN1Cc2c(NC(=O)CN3CCCC3)cccc2C(c2ccccc2)C1 (stereo not shown) [Compound A, 4-phenyl-2-methyl-8-pyrrolidino-acetylamino-1,2,3,4-tetrahydro-isoquinoline-dimaleate] | 5.2 | 15 | 43 | 11 | 62 | 8 | 86 | 3 | 206 | 8 | 86 | 653 | 89 | 1,4 |  |  |
| CC(C)NCCC(=O)Nc1cccc2c1CN(C)CC2c1ccccc1 (stereo not shown) [Compound B, 4-phenyl-8-[3'-isopropylamino-propionyl-amino]-2-methyl-1,2,3,4-tetrahydroisoquinoline-maleate] | 4.3 | 7 | 267 | 6 | 321 | 5 | 428 | 6 | 342 | 5 | 428 | 1920 | > 178 | 1,3 | 96 |  |
| CCNCC(=O)Nc1cccc2c1CN(C)CC2c1ccc(Cl)cc1 (stereo not shown) [Compound C, 8-ethylamino-acetyl-amino-4-p-chloro-phenyl-2-methyl-1,2,3,4-tetrahydroisoquinoline-maleate] | 1.1 | 49 | 14 | 13 | 51 | 62 | 11 | 16 | 42 | 13 | 53 | 686 | 68 | 1,0 |  | Activity compared with Nomifensine (in words) [8]: surpasses the activity of Nomifensine in three tests |
| CCCCNCC(=O)Nc1cccc2c1CN(C)CC2c1ccc(Cl)cc1 (stereo not shown) [Compound D, 8-butyl-amino-acetyl-amino-4-p-chloro-phenyl-2-methyl-1,2,3,4-tetrahydro-isoquinoline-maleate] | 1 | 82 | 7.8 | 24 | 27 | 64 | 10 | < 16 |  | 13 | 48 | 637 | 64 | 1,8 | 36 | Therapeutical index in the anti-reserpine test compared with Nomifensine (in words) ([4]; anti-reserpine test): more favourable therapeutical index; minimal effective dose (spontaneous motility; read-out: ED, lowest i.p. dose which still increases or decreases the spontaneous motility (Test 3, no sign)): > 40 µmol/kg |
| CCCCNC(=O)Nc1cccc2c1CN(C)CC2c1ccc(Cl)cc1 (stereo not shown) [Compound E, 8-n-butyl-carbamoyl-amino-4-p-chloro-phenyl-2-methyl-1,2,3,4-tetrahydro-isoquinoline-maleate] | 6.1 | > 66 | 31 | > 23 | 90 |  | > 205 | > 66 | 31 | > 8 | 246 | > 2050 | 275 | 2,7 | 143 |  |
| CCCCNC(=O)Nc1cccc2c1CN(C)CC2c1ccc(C)cc1 (stereo not shown) [Compound F, 2-methyl-8-n-butyl-carbamoyl-amino-4-p-tolyl-1,2,3,4-tetrahydro-isoquinoline-maleate] | > 11 | > 80 | 32 | > 20 | 128 | > 30 | 86 | > 60 | 43 | > 12 | > 214 | > 2570 | 178 | > 1,7 and 1.7 | 107 |  |
| CCCCNCC(=O)Nc1cccc2c1CN(C)CC2c1ccc(C)cc1 (stereo not shown) [Compound G, 8-butylamino-acetyl-amino-2-methyl-4-p-tolyl-1,2,3,4-tetrahydro-isoquinoline-maleate] | 2.1 | 133 | 5 | 9 | 71 | 32 | 21 | 66 | 10 | 23 | 29 | 664 | 108 | 0,4 |  | Antidepressant versus antiparkinson profile (in words) ([7]; from quotient ED2:ED4): stronger anti-dopamine, anti-parkinsone activity; Activity compared with Nomifensine (in words) [8]: very high activity; Therapeutical index (in words) [8]: good therapeutical index |
| CCNCC(=O)Nc1cccc2c1CN(C)CC2c1ccc(C)cc1 (stereo not shown) [Compound H, 8-ethylamino-acetyl-amino-2-methyl-4-p-tolyl-1,2,3,4-tetrahydro-isoquinoline maleate] | 2.2 | 59 | 12 | 7 | 99 | 16 | 44 | 32 | 22 | 21 | 33 | 706 | 183 | 0,3 |  | Therapeutical index (in words) [8]: good therapeutical index |
| CN1Cc2c(N)cccc2C(c2ccccc2)C1 (stereo not shown) [Nomifensine, 8-amino-4-phenyl-2-methyl-1,2,3,4-tetrahydro-isoquinoline, reference compound] | 1.4 | 268 | 4.2 | 30 | 37 | 40 | 28 | 40 |  | 20 | 56 | 1130 | 23 | 1,6 | 28 | Effect on spontaneous motility (in words) (spontaneous motility; mice): increases the spontaneous motility |
